# Structures can show the parent of a compound that is named as a salt.
# Key:
# [1] = biological target: Beta-3 adrenergic receptor (Homo sapiens, UniProt P13945); test: 3H-CGP 12177 Whole Cell Binding Assay
# Excerpt: (§1) The whole cell-binding studies were undertaken in CHO cell lines stably expressing each beta-adrenoceptor subtype.
# [2] = biological target: Beta-1 adrenergic receptor (Homo sapiens, UniProt P08588); test: 3H-CGP 12177 Whole Cell Binding Assay; conditions: pH 7.4; 37 °C
# Beta-1 adrenergic receptor, sequence (P08588 whole entry): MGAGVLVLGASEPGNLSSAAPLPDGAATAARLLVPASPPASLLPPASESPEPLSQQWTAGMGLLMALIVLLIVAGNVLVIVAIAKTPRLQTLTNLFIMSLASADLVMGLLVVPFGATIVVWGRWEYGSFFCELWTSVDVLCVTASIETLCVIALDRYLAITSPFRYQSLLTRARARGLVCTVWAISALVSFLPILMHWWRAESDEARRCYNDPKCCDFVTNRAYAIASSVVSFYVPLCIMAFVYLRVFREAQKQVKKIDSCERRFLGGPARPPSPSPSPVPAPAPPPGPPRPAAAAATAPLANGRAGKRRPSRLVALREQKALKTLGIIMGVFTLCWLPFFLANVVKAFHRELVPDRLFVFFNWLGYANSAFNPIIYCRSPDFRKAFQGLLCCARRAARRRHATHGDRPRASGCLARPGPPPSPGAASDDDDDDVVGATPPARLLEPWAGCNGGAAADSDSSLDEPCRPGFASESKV
# Excerpt: as §1
# Beta-3 adrenergic receptor, sequence (P13945 whole entry): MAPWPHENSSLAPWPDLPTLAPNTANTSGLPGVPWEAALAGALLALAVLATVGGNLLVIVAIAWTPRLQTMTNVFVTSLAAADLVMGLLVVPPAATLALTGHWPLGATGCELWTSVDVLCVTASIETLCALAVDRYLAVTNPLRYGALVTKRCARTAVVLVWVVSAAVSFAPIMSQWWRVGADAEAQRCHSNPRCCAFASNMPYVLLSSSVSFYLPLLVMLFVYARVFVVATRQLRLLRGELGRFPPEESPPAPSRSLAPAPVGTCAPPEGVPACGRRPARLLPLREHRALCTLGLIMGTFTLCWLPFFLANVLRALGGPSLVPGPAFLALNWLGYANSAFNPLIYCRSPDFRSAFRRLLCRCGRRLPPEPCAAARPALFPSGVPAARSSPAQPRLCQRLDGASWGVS
Kd [1] [nM],Kd [2] [nM],SMILES
234,–,O=C(O)COc1ccc(OCCNC[C@@H](O)COc2ccccc2)cc1 [2-[4-(2-{[(2R)-2-hydroxy-3-phenoxypropyl]amino}ethoxy)phenoxy]acetic acid]
158,–,"CC(C)(C)NC[C@H](O)COc1nsnc1N1CCOCC1 (racemic) [tert-butyl(2-hydroxy-3-{[4-(morpholin-4-yl)-1,2,5-thiadiazol-3-yl]oxy}propyl)amine]"
1290,363,CC(C)NCC(O)c1ccc2ccccc2c1 (stereo unspecified) [1-(naphthalen-2-yl)-2-(propan-2-ylamino)ethan-1-ol]
661,59,CC(C)(C)NCC(O)COc1cccc2c1C[C@H](O)[C@H](O)C2 (stereo partly specified) [Corgard]
91,3.1,Cc1ccc(Cl)c(OCC(O)CNC(C)(C)C)c1 (stereo unspecified) [tert-butyl[3-(2-chloro-5-methylphenoxy)-2-hydroxypropyl]amine]
1860,–,OCc1cc(C(O)CNCCCCCCOCCCCc2ccccc2)ccc1O (stereo unspecified) [salmeterol xinafoate]

SMILES,Kd [1] [nM],Kd [2] [nM]
"CC(C)(C)NCC(O)COc1cccc2[nH]c(=O)[nH]c12 (stereo unspecified) [4-[3-(tert-butylamino)-2-hydroxypropoxy]-2,3-dihydro-1H-1,3-benzodiazol-2-one hydrochloride]",102,–
CC(C)NC[C@H](O)COc1ccc(CCOCC2CC2)cc1 [[(2S)-3-{4-[2-(cyclopropylmethoxy)ethyl]phenoxy}-2-hydroxypropyl](propan-2-yl)amine],1070,–

# — BindingDB's records for doi:10.1038/sj.bjp.0706048 (University of Nottingham, 2005)
